Source: US8642343B2, “Blood separating agent and blood collection container” (Sekisui Medical Co., Ltd., priority 2010, dated 2014)

Experiment: Solubility of polymerization inhibitors at 25° C.
Conditions: in water

Row | Solubility (25° C.) | Solubility (25° C.) (listed as hydroquinone) [g/100 ml] | Compound
1 | 0.002 g/100 ml | – | CC(C)(C)c1cc(O)c(C(C)(C)C)cc1O [Material 2, 2,5-di-t-butylhydroquinone]
2 | 7 g/100 mL g/100 ml | 7 | Oc1ccc(O)cc1 [Material 4, hydroquinone, reference compound]
3 | 4 g/100 ml | – | COc1ccc(O)cc1 [Material 1, p-methoxyphenol]

Row | Compound | Solubility (25° C.) | Solubility (25° C.) (listed as hydroquinone) [g/100 ml]
4 | c1ccc2c(c1)Nc1ccccc1S2 [Material 3, phenothiazine] | insoluble | –
